Entries after “also recorded” stand apart in the source; their conditions may differ. Square brackets hold non-standard residues; d marks the D form. Ends that are not written are not given here. Peptide text beside a SMILES is read from it. * marks the point of attachment. hArg = N=C(N)NCCCC[C@H](N)C(=O)O; Pentanoyl = CCCCC(=O)*
What was measured:
[1] = molecular target: T1, PCSK9 (Homo sapiens, UniProt Q8NBP7); assay: Surface plasmon resonance biosensor-based affinity analysis (Example 4); format: binding; conditions: Table 7, Target PCSK9, SPR at 20° C.
[2] = molecular target: T2, PCSK9Δhelix (Homo sapiens, UniProt Q8NBP7); assay: as above; format: binding; conditions: Table 7, Target PCSK9Δhelix, SPR at 20° C.; read-out: Kd
T2 construct: Human PCSK9 construct M1-Q692 with an engineered TEV site (residue deletion Y166, R167); made in house; host or cells: CHO

[3] = molecular target: T1, PCSK9; assay: PCSK9/EGF(A) TR-FRET binding assay; conditions: TR-FRET, Example 7; read-out: PCSK9/EGF(A) IC50
[4] = molecular target: T2, PCSK9Δhelix; assay: PCSK9Δhelix/Ab20 TR-FRET binding assay
[5] = tested on: His-EGF(A)-Fc; assay: His-EGF(A)-Fc TR-FRET counterscreen; conditions: counterscreen, Example 7
[6] = molecular target: T2, PCSK9Δhelix; assay: SPR affinity measurements of peptide binding (Example 8); conditions: Table 10, binding to PCSK9Δhelix
Experimental: A Biacore™ T100 or Biacore™ 8K was adjusted to 20° C. The system was primed into assay buffer which consisted of 25 mM HEPES, pH 7.5, 0.15 M NaCl, 0.005% (v/v) Tween® 20, 0.2 mM tris(2-carboxyethyl)phosphine and optionally contained 0.1% (w/v) carboxymethylated dextran (average MW 10 kDa) and 0.2% (w/v) PEG (average MW 3450 Da) in order to reduce potential non-specific binding. Peptides were assayed by capturing fresh PCSK9 or PCSK9Δhelix after each binding regeneration cycle by exploiting a histidine tag and an NTA-sensor chip. The surface was charged with (His)8-tagged PCSK9 (approximately 800 RU captured). […] Compound 19 and Compound 20 were assayed in six serial two-fold dilutions from 100 nM to 3.1 nM. All peptides were analyzed in duplicate by serial injection (50 μL/min for 1 min) of peptide dilution from low to high concentration. The surface was then stripped of target by injecting 0.5 M EDTA, pH 8.0. This sequence was repeated for each peptide binding cycle and blank control cycles.
All SPR data was recorded in duplicate for five, or more serial dilutions, except for the two fusion peptides, which produced extremely low fitting error. Multicycle data (i.e. separate curves for each concentration) and single cycle data (i.e. single curve with serial injection of each concentration) were double referenced and fitted to an interaction model using BIAevaluation software. Peptide binding to PCSK9 produced deviations from a simple 1:1 binding interaction model that required application of a two-state model for determination of Kd while interactions with PCSK9Δhelix conformed well to simple 1:1 binding. Kinetic curvature was poorly defined for rapidly dissociating peptides and in these cases Kd was estimated from a steady-state dose response plot. Kd values were reported with associated standard error, a measure of confidence in that parameter value.

[7] = molecular target: T1, PCSK9; assay: Phage competition ELISA; format: binding
Experimental: The sequences of selected clones were fused to the N-terminus of M13 major coat protein (p8) using Kunkel mutagenesis method (Kunkel et al., Methods Enzymol 154, 367-82). The resulting construct was transformed to E. Coli. XL1 blue, single colony was grown in 1 mL 2YT supplemented with 50 μg/mL carbenicillin, 10 μg/mL Tetracycline and M13 KO7 helper phage at 37° C. for 2 h, Kanamycin was added to final concentration of 25 μg/mL, growth was continued at 37° C. for 6 h. The culture was transferred to 30 mL 2YT supplemented with 50 μg/mL carbenicillin and 25 μg/mL kanamycin and grown at 37° C. overnight. The next day, the phage was harvested and purified using the standard protocol (Tonikian et al. Nat Protoc. 2007; 2(6):1368-86). The serially diluted phage solution was applied to the biotinylated PCSK9 and biotinylated PCSK9Δhelix that had been immobilized for 15 min on a 384-well MaxiSorp ImmunoPlate previously coated with 5 μg/mL NeutrAvidin and blocked with Block buffer. The plate was incubated at 4° C. for 1 h, washed 10 times with PT buffer (PBS, 0.05% Tween® 20). The bound phage was detected with anti-M13-HRP and the ELISA signal was read at OD450 nm. The background was ELISA signal that the phage directly bound to NeutrAvidin-coated plate. The data was plotted and the curve fitted with KaleidaGraph. Sub-saturating phage concentration that gave 80% of maximum binding signal was determined by the binding curve.
IC50 measurements were performed by mixing a fixed sub-saturating concentration of peptide-displaying phage with a serial dilution of synthetic peptides in PBT buffer. The mixture was added to plates coated with PCSK9 and PCSK9Δhelix and incubated for 1 h at room temperature. The plates were then washed 10 times with PBT buffer and the bound phage was detected by anti-M13-HRP. The data was plotted, curve fitted and IC50 derived by use of KaleidaGraph. All measurements were repeated 3 times independently.

[8] = molecular target: T1, PCSK9; assay: PCSK9 | IC50(uM)
From the text: Where the first naming reader finds the target: head: PCSK9 | IC50(uM)

[9] = molecular target: T2, PCSK9Δhelix; assay: PCSK9Δhelix | IC50(uM)
From the text: Where the first naming reader finds the target: head: PCSK9Δhelix | IC50(uM)

[10] = molecular target: T3, PCSK9-R167A:R215A:R218A (PCSK9-AAA) (Homo sapiens, UniProt Q8NBP7, R167A/R215A/R218A); assay: FXIa cleavage assay of the P′ helix of PCSK9-AAA; format: biochemical; conditions: immunoblot with anti-N-terminal peptide antibody
T3 construct: made in house; host or cells: CHO (transient)
Experimental: The PCSK9-AAA mutant (2.6 μM) was incubated with 50 nM FXIa (Haematologic Technologies) in Tris buffer (50 mM Tris, 150 mM NaCl, 4 mM CaCl2, pH 8.0) at room temperature for the indicated time periods. […] After SDS-PAGE of the samples, proteins were transferred to a nitrocellulose membrane using iBlot (Invitrogen). Proteins were then probed with a polyclonal rabbit antibody (1:3000) raised against the PCSK9 N-terminal peptide (^153[…]^168 (SEQ ID NO: 5)), followed with HRP-conjugated donkey anti-rabbit antibody (1:5000, GE Healthcare) using iBind (Invitrogen). PCSK9 signals were detected by ECL (GE Healthcare) and visualized by autoradiography.
Proteins were then probed with a polyclonal rabbit antibody (1:3000) raised against the PCSK9 N-terminal peptide (^153[…]^168 (SEQ ID NO: 5)), followed with HRP-conjugated donkey anti-rabbit antibody (1:5000, GE Healthcare) using iBind (Invitrogen). PCSK9 signals were detected by ECL (GE Healthcare) and visualized by autoradiography.

[11] = molecular target: T4, FXIa (Homo sapiens, UniProt P03951); assay: LC-MS determination of FXIa-mediated cleavage of groove-binding peptides; format: in vitro ADME
T4 construct: purchased Haematologic Technologies
Experimental: Peptide cleavage was determined by using the calculated molecular weights and by measuring the area under the curves.

[12] = tested on: contaminating protease; assay: PCSK9 cleavage under crystallization conditions and inhibition by serine protease inhibitors; format: biochemical; conditions: serpins 150 μM, Aprotinin 1.5 mM, 9 days, room temperature
Experimental: After SDS-PAGE of the samples, the 60 kDa band comprising the PCSK9 catalytic domain and Cys-rich domain (CRD) was analyzed by N-terminal sequencing and the results reported in Table 2.
Samples were analyzed by SDS-PAGE and transferred to a nitrocellulose membrane using iBlot (Invitrogen). Proteins were then probed with a polyclonal rabbit antibody (1:3000) raised against the PCSK9 N-terminal peptide (^153[…]^168 (SEQ ID NO: 5)), followed with HRP-conjugated donkey anti-rabbit antibody (1:5000, GE Healthcare) using iBind (Invitrogen). PCSK9 signals were detected by ECL (GE Healthcare) and visualized by autoradiography. The polyclonal rabbit antibody against the PCSK9 N-terminal peptide ^153[…]^168 (SEQ ID NO: 5) was generated by immunizing rabbits with the synthesized peptide […] (SEQ ID NO: 285), which contained an extra Cys residue at the N-terminus for conjugation to KLH. The polyclonal antibody IgG was purified from rabbit serum using affinity chromatography with resin-immobilized peptide […] (SEQ ID NO: 285) (YenZym Antibodies, LLC, San Francisco, Calif.).

[13] = molecular target: T5, LDLR ectodomain (Homo sapiens, UniProt P01130); assay: Biolayer interferometry binding of PCSK9 mutants to LDLR ectodomain
T5 construct: purchased R & D Systems
From the text: In further experiments the previously described PCSK9 mutant PCSK9-R215A:R218A (=PCSK9-AA) (Lipari et al. J Biol Chem. 2012 Dec. 21; 287(52):43482-91), in which the “furin cleavage loop” residues had been changed to Alanine, was used in order to prevent protease cleavage at the susceptible residues R215 and R218. […] Therefore, to direct the FXIa cleavage specifically to the P′ alpha helix residue R160 the triple mutant PCSK9-R167A:R215A:R218A (=PCSK9-AAA) was produced. The binding affinities of PCSK9-AAA and PCSK9-AA to the LDLR ectodomain (R & D Systems) were determined by biolayer interferometry as described (Lipari et al. J Biol Chem. 2012 Dec. 21; 287(52):43482-91).

[14] = TR-FRET, Example 7, read-out: PCSK9Δhelix/Ab20 IC50

Molecule: Ac-PWNLVRIGLLR-NH2 [Compound 52]
- Kd [1]: 17900 nM
- Kd [2]: 2600 nM
- IC50 [3]: > 50000 nM
- IC50 [4, 14]: 10200 nM
- IC50 ([4]; Table 10, average ±S.D. of three experiments, read-out: Ab20 IC50): 15900 ± 1100 nM
- IC50 [5]: > 50000 nM
- Kd [6]: 2100 nM

Molecule: SGDLMPWNLVRIGLLR-NH2 [Compound K9gvpep7]
- competition with binding of phage-displayed Pep2-8 to PCSK9 [7]: did not compete
- IC50 [8]: 635 ± 107 nM
- IC50 [9]: 914 ± 28.3 nM

Molecule: CCCCC(=O)N[C@@H](Cc1c[nH]c2ccccc12)C(=O)N[C@@H](CC(N)=O)C(=O)N[C@@H](CC(C)C)C(=O)N[C@H](C(=O)N[C@@H](CCCNC(=N)N)C(=O)N[C@H](C(=O)NCC(=O)N[C@@H](CC(C)C)C(=O)N[C@H](C(=O)N[C@@H](CCCNC(=N)N)C(N)=O)[C@@H](C)O)[C@@H](C)CC)C(C)C [Compound 112] (Pentanoyl-WNLVRIGLTR-NH2)
- IC50 [3]: > 50000 nM
- IC50 [4, 14]: 7500 nM
- IC50 [5]: > 50000 nM
- effect on FXIa-mediated cleavage of the P′ helix of PCSK9-AAA [10]: able to increase the FXIa-mediated cleavage
- peptide cleaved by FXIa ([11]; 1 h, with K9-AAA and 50 nM FXIa): 34%
- peptide cleaved by FXIa ([11]; 6 h, with K9-AAA and 50 nM FXIa): 76%
- metabolised at 1 h ([11]; isolated protease FXIa (50 nM) with K9-AAA, 1 h, with K9-AAA and 50 nM FXIa, read-out: peptide cleaved by FXIa): 34%
- metabolised at 6 h ([11]; isolated protease FXIa (50 nM) with K9-AAA, 6 h, with K9-AAA and 50 nM FXIa, read-out: peptide cleaved by FXIa): 76%

Molecule: antithrombin III
- inhibition of P′ helix cleavage of the Fab33:PCSK9 complex by contaminating protease [12]: cleavage was prevented; also recorded: able to prevent proteolytic cleavage

Molecule: SGGSMPWNLERIFALH-NH2 [Compound K9gvpep8]
- competition with binding of phage-displayed Pep2-8 to PCSK9 [7]: did not compete
- IC50 [8]: 1700 ± 166 nM
- IC50 [9]: 2150 ± 215 nM

Molecule: PCSK9-AA: PCSK9 mutant in which the furin cleavage loop residues R215 and R218 had been changed to Alanine
- Kd [13]: 260 nM

Molecule: CCCCC(=O)N[C@@H](Cc1c[nH]c2ccccc12)C(=O)N[C@@H](CC(N)=O)C(=O)N[C@@H](CC(C)C)C(=O)N[C@H](C(=O)N[C@@H](CCCCNC(=N)N)C(=O)N[C@H](C(=O)NCC(=O)N[C@@H](CC(C)C)C(=O)N[C@H](C(=O)N[C@@H](CCCNC(=N)N)C(N)=O)[C@@H](C)O)[C@@H](C)CC)C(C)C [Compound 118, n-BuC(O)-WNLV(homoR)IGLTR-NH2] (Pentanoyl-WNLV[hArg]IGLTR-NH2)
- IC50 [3]: > 50000 nM
- increase of inhibition in PCSK9Δhelix/Ab20 assay by homo-arginine replacement ([4]; versus Compound 112): 5 fold
- IC50 [5]: > 50000 nM
- effect on FXIa-mediated cleavage of the P′ helix of PCSK9-AAA [10]: higher degree; also recorded: able to increase the FXIa-mediated cleavage; also recorded: stronger effect
- peptide cleavage by FXIa ([11]; up to 6 h): remained intact; also recorded: No cleavage

Molecule: alpha1-antitrypsin: more elastase-specific serpin
- inhibition of P′ helix cleavage of the Fab33:PCSK9 complex by contaminating protease [12]: did not inhibit cleavage

B1: PCSK9-AAA: triple mutant PCSK9-R167A:R215A:R218A (protein, UniProt Q8NBP7 153-692, looked up, variant R167A R215A R218A)
Proprotein convertase …: SIPWNLERITPPRYAADEYQPPDGGSLVEVYLLDTSIQSDHREIEGRVMVTDFENVPEEDGTAFHAQASKCDSHGTHLAGVVSGRDAGVAKGASMRSLRVLNCQGKGTVSGTLIGLEFIRKSQLVQPVGPLVVLLPLAGGYSRVLNAACQRLARAGVVLVTAAGNFRDDACLYSPASAPEVITVGATNAQDQPVTLGTLGTNFGRCVDLFAPGEDIIGASSDCSTCFVSQSGTSQAAAHVAGIAAMMLSAEPELTLAELRQRLIHFSAKDVINEAWFPEDQRVLTPNLVAALPPSTHGAGWQLFCRTVWSAHSGPTRMATAVARCAPDEELLSCSSFSRSGKRRGERMEAQGGKLVCRAHNAFGGEGVYAIARCCLLPQANCSVHTAPPAEASMGTRVHCHQQGHVLTGCSSHWEVEDLGTHKPPVLRPRGQPNQCVGHREASIHASCCHAPGLECKVKEHGIPAPQEQVTVACEEGWTLTGCSALPGTSHVLGAYAVDNTCVVRSRDVSTTGSTSEGAVTAVAICCRSRHLAQASQELQ
- Kd [13]: 214 nM

— US11034725B2, “Compositions and methods for treating cardiovascular disease” (Genentech, Inc., priority 2016, dated 2021)
